Results published in patent US20240293405A1, “(1H-PYRROLO[2,3-B]PYRIDIN-1-YL)PYRIMIDIN-2-YL-AMINO-PHENYL-ACRYLAMIDE INHIBITORS OF EGFR FOR USE IN THE TREATMENT OF BRAIN TUMORS” (Dana-Farber Cancer Institute, Inc., priority 2021, published 2024).
Like-named read-outs stand apart in the source and are kept apart here.

Assays:
293-EGFRvIII cells = test: Cell viability of 293-EGFRvIII cells (CellTiter-Glo); format: cell-based, human; conditions: Homo sapiens, 72 h, read-out: IC50, viability of 293-EGFRvIII cells
Procedure: (§1) Cells were seeded in 96-well plates at a density of 1,000 cells per well and treated with two-fold serial dilutions of compounds with a starting concentration of 20 μM. Cell viability was assessed after three days of treatment by CellTiter-Glo (Promega). Curve fitting analysis and IC50 value determination were performed using GraphPad Prism 8.

U251-EGFRvIII cells = test: Viability/proliferation of U251-EGFRvIII cells; format: cell-based, human
Procedure: as §1
In parallel, the conventional human GBM U251 cell line was used as a surrogate model for both in vitro and in vivo studies. U251 cells were engineered to stably express EGFRvIII (U251-EGFRvIII) via retroviral-mediated gene transfer.

ALK = ALK (Homo sapiens, UniProt Q9UM73); test: Kinase binding constant (Kd)
Sequence of ALK (Q9UM73 19-1620): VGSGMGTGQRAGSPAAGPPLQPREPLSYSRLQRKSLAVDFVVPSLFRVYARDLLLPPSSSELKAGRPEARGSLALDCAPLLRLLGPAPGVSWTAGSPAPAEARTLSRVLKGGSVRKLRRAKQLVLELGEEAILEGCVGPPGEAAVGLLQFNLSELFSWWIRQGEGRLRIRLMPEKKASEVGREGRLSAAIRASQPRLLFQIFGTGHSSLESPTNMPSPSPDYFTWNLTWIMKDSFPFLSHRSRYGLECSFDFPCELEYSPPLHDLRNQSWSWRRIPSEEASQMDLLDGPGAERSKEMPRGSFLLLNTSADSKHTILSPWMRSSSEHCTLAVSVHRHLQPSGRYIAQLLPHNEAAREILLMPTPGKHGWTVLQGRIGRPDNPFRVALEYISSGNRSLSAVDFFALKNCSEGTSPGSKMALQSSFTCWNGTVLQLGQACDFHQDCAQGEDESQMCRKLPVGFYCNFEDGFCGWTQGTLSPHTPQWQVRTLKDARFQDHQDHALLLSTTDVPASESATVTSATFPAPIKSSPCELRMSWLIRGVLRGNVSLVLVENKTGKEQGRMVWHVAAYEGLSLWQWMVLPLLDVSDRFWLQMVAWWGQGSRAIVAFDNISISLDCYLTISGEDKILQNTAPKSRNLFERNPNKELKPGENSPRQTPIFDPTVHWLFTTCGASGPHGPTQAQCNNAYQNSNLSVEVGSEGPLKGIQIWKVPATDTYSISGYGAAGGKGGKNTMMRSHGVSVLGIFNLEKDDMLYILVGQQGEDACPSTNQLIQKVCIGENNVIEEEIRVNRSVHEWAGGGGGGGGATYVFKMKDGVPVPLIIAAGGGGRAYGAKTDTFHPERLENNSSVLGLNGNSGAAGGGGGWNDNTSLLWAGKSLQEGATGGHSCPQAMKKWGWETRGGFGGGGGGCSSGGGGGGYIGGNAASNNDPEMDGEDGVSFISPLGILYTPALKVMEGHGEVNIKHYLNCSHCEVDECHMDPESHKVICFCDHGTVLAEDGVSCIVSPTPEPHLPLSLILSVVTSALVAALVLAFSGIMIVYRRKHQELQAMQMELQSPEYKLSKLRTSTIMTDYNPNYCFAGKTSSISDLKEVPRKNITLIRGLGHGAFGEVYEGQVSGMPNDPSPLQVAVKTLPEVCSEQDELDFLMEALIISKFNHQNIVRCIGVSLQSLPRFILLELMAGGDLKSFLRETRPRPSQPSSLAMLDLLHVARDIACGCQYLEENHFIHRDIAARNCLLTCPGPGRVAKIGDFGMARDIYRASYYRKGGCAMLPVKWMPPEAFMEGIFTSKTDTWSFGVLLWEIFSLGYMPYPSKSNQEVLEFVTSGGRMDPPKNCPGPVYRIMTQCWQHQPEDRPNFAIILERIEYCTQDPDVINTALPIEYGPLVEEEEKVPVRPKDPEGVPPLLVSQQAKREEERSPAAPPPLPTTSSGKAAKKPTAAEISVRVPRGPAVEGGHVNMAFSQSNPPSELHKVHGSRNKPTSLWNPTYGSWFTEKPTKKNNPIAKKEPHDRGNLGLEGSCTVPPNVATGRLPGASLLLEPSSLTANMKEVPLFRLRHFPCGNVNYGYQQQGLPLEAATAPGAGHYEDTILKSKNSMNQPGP
Procedure: (§2) EGFR amplifications and/or mutations are common in GBM, estimated to occur in over 50% of patients.
(§3) Compound 1 and Compound 2 (major metabolite) were evaluated in a panel of 468 human kinases and disease relevant mutant variants. Compound 1 and Compound 2 bound to few non-mutant kinases at <1% of control. […] While there is some variability between Compound 1 and Compound 2, it is clear that both compounds are very effective at binding to a large panel of mutant kinases. […] Binding constant to wild type EGFR was 4.9 nM.

PDGFRA = PDGFRA (Homo sapiens, UniProt P16234); test: Kinase binding constant (Kd)
Sequence of PDGFRA (P16234 24-1089): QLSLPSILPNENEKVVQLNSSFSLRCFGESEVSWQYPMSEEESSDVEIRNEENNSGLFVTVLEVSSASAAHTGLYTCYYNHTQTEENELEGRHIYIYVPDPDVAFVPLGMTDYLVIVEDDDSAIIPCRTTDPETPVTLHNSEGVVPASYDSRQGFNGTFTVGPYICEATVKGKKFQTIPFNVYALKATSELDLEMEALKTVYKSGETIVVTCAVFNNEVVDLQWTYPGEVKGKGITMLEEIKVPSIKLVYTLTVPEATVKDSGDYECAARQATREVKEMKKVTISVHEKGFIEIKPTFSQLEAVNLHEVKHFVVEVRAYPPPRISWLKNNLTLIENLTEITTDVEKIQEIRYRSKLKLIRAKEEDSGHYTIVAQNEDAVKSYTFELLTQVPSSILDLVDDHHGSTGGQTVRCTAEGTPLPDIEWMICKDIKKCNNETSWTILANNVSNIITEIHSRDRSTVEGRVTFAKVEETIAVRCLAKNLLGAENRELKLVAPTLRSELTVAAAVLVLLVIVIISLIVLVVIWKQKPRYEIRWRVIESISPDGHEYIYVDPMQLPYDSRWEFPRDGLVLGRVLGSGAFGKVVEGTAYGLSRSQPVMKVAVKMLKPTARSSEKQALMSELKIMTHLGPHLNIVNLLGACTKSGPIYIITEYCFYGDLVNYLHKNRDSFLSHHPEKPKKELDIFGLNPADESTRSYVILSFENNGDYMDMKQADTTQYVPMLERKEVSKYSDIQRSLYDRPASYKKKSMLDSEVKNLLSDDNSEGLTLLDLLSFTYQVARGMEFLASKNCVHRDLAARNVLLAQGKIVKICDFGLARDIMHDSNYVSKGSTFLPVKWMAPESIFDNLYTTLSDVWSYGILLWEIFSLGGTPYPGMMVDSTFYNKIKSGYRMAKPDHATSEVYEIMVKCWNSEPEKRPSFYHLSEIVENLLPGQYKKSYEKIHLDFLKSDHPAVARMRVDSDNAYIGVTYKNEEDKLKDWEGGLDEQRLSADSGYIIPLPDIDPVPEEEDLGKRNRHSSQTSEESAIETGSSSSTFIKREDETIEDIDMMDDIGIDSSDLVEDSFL
Procedure: as §2, §3

PDGFRB = PDGFRB (Homo sapiens, UniProt P09619); test: Kinase binding constant (Kd)
Sequence of PDGFRB (P09619 33-1106): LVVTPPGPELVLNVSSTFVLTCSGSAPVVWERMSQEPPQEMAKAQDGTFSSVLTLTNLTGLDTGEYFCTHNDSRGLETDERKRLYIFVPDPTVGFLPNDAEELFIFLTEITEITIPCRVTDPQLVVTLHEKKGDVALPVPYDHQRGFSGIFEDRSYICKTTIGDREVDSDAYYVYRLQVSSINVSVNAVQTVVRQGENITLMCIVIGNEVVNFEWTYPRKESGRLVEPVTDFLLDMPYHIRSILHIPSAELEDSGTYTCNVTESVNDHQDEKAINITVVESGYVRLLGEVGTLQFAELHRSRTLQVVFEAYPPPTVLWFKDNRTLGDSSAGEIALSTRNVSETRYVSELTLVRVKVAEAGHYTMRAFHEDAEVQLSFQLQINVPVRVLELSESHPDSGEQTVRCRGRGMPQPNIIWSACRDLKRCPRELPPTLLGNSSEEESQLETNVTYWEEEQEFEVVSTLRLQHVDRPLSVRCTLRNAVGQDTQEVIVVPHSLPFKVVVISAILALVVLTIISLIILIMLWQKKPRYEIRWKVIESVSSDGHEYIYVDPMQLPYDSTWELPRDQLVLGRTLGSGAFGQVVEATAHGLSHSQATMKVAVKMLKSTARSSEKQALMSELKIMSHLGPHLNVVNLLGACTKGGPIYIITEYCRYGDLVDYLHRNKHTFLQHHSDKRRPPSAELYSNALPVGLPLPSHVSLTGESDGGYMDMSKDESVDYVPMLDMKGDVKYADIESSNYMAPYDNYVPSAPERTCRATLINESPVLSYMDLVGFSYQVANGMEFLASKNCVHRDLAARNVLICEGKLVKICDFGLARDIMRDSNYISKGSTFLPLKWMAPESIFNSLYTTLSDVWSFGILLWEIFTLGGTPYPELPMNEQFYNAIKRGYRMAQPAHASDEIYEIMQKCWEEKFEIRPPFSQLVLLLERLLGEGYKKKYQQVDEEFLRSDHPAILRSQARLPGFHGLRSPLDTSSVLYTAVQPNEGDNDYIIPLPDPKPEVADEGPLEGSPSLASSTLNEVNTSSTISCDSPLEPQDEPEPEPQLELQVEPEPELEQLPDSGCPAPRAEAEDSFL
Procedure: as §2, §3

[1] = Body weight over the course of treatment in mice; format: in vivo; conditions: 25 mg/kg; study endpoint reached within one month
[2] = test system: NCI-H1975 cells (EGFR L858R/T790M mutation); test: Cell viability assay, NCI-H1975 (CellTiter-Glo); format: cell-based; conditions: Homo sapiens, NCI-H1975, 72 h, read-out: IC50, cell viability
Description: (§4) CellTier-Glo (Promega) assay kit (https://www.promega.com/resources/protocols/technical-bulletins/0/celltiter-glo-luminescentcell-viability-assay-protocol/) was used here.

[3] = test system: PC-9 cells (EGFR exon 19 deletion); test: Cell viability assay, PC-9 (CellTiter-Glo); format: cell-based; conditions: Homo sapiens, PC-9, read-out: IC50, cell viability
Description: as §4

P-gp, Bcrp = conditions: previously published report; cited from earlier work
NSCLC brain metastases = NSCLC brain metastases in SCID mice; conditions: 25 mg/kg; […]

C=CC(=O)Nc1cc(Nc2nccc(-c3cn(C)c4ccccc34)n2)c(OC)cc1N(C)CCN(C)C [Osimertinib, reference compound] gave an IC50 (293-EGFRvIII cells) of 2190 nM, an IC50 (U251-EGFRvIII cells; Homo sapiens, read-out: IC50, viability of U251-EGFRvIII cells) of […] and an IC50 (U251-EGFRvIII cells; Homo sapiens, read-out: IC50 on U251-EGFRvIII cell proliferation) of 2450 nM. For the same compound, the IC50 (U251-EGFRvIII cells; read-out: IC50, viability of U251-EGFRvIII cells) was 2600 nM, the Kd (ALK) was 69 nM and the Kd (PDGFRA) was 740 nM. For the same compound, the Kd (PDGFRB) was 1500 nM, the “body weight over the course of treatment” value [1] was “significant body weight loss” and the IC50 [2] was […]. The IC50 [3] was 18.1 nM, the “Efflux Liability” value (P-gp, Bcrp) was “P-gp, Bcrp” and the “time at which study endpoint was reached” value (NSCLC brain metastases) was 4 weeks.
